Measurements published in patent publication US9290541B2, “TCL1 peptides for immunotherapy” (Board of Regents, The University of Texas System, priority 2011, dated 2016).

Tests used:
[1] = tested on: PBMC from HLA-A2+ normal donors; test: IFN-γ ELISA of T cells stimulated with overlapping 15-mer TCL1 peptides; assay type: cell-based, human; conditions: three HLA-A2+ normal donors; 10 μg/ml peptide, 5 stimulations; ELISA after 18 hours
Procedure: FIGS. 3A-E: TCL1-specific cytotoxic T cells can be generated from normal donors. (FIG. 3A) PBMCs from HLA-A2^+ normal donors were stimulated with overlapping 15-mer peptides spanning the entire length of the TCL1 protein (see Table 2). T cells from each condition were washed and incubated with autologous CD3-depleted PBMC as antigen-presenting cells (APC) in the presence or absence of the corresponding peptide. After 18 hours, the production of IFN-γ was determined in the supernatants by ELISA. Asterisk indicates significant IFN-γ production compared with control (P<0.05). Representative data from one of three normal donors tested is shown. (FIG. 3B) T cell lines generated from HLA-A2^+ normal donors using TCL165-79 peptide were incubated with APC in the presence or absence of the TCL165-79 peptide or control HIV Gag77-85 peptide, and intracellular cytokine assay was performed. The percentage of CD4^+ and CD8^+ T cells producing IFN-γ are shown. […] IFN-γ production was determined as in (FIG. 3A). […]
Peptide-specific T-cell lines were generated from HLA-A2^+ normal donors and patients using methods previously reported (Hida et al., 2002). […] After 18 hours, the production of interferon (IFN)-γ was determined in the supernatants by ELISA. […]

[2] = tested on: TCL171-78 tetramer positive T cells; test: Peptide titration, avidity of TCL1-specific CTL (IFN-γ ELISA); assay type: cell-based, human; conditions: T2 cells pulsed with various peptide concentrations; moderate avidity
Procedure: FIG. 15. Avidity of TCL1-specific CTL. TCL171-78 tetramer positive T cells were isolated from a TCL1-specific T cell line by MACS using TCL171-78 tetramer PE and anti-PE microbeads. The isolated T cells were incubated with T2 cells pulsed with various concentrations of TCL165-79 peptide and IFN-γ production was determined in the supernatants by ELISA after 18 hours. […] Representative data from one of two experiments.

**Q.** With TQIGPSLLPIMWQLY [TCL165-79] as the sequence, how does the “induction of peptide-specific IFN-γ-producing T cells” value [1] read?
**A.** consistently induced peptide-specific IFN-γ-producing T cells

**Q.** What about the “lowest peptide concentration recognized by T cells” value [2] of the same sequence?
**A.** 1 nM
